From US11999739B2, “Antimicrobials methods of making and using the same” (BIOVERSYS AG, priority 2016, dated 2024)

Assays:
[1] = test system: Staphylococcus aureus (S. aureus) 11540 strain; assay: Standard microdilution MIC assay, S. aureus; assay type: cell-based
Method in brief: (§1)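 Broth microdilution per CLSI M7-A8 guidelines, with reference-strain quality control run in the same design; MIC determined per strain. Activity scored +/− against a 16 micrograms/mL cutoff.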

[2] = test system: Escherichia coli strain ATCC25922; assay: Standard microdilution MIC assay, E. coli; assay type: cell-based
Method in brief: as §1

SMILES	MIC [1] [µg/mL]	MIC [2] [µg/mL]
C=C[C@@H](N)CCCc1cc(Cl)c(F)c(-c2cc3cn(-c4ccc([C@H](C)N[C@@H](C=C)CCNC(C)=N)cc4)c(=O)nc3[nH]2)c1 [Compound 149]	≤ 16	≤ 16
C=C[C@@H](CCNC(C)=N)N[C@@H](C)c1ccc(-n2cc3cc(-c4cc(CCC[C@@H](N)CF)cc(Cl)c4F)[nH]c3nc2=O)cc1 [Compound 150]	≤ 16	≤ 16
C=C[C@@H](CCNC(C)=N)N[C@@H](C)c1ccc(-n2cc3cc(-c4cc(CCC[C@@H](N)CO)cc(Cl)c4F)[nH]c3nc2=O)cc1 [Compound 151]	≤ 16	≤ 16
CC(=N)NCC[C@H](CO)NCc1ccc(-n2cc3cc(-c4cc(CCCC5(N)CC5)cc(Cl)c4F)[nH]c3nc2=O)cc1 [Compound 153]	≤ 16	≤ 16
CC(=N)NCC[C@@H]1CCC[C@@H](c2ccc(-n3cc4cc(-c5cc(CCC[C@@H](N)CC#N)cc(Cl)c5F)[nH]c4nc3=O)cc2)N1 [Compound 154]	≤ 16	≤ 16
C=C[C@@H](CCNC(C)=N)NCc1ccc(-n2cc3cc(-c4cc(CCC[C@@H](N)CC#N)cc(Cl)c4F)[nH]c3nc2=O)cc1 [Compound 155]	≤ 16	≤ 16
CC(=N)NCC[C@@H]1CCC[C@@H](c2ccc(-n3cc4cc(-c5cc(CCC[C@@H](N)CC(N)=O)cc(Cl)c5F)[nH]c4nc3=O)cc2)N1 [Compound 156]	≤ 16	≤ 16
C=C[C@@H](CCNC(C)=N)NCc1ccc(-n2cc3cc(-c4cc(CCC[C@@H](N)CC(N)=O)cc(Cl)c4F)[nH]c3nc2=O)cc1 [Compound 157]	≤ 16	≤ 16
C=C[C@@H](N)CCCc1cc(Cl)c(F)c(-c2cc3cn(-c4ccc([C@H](CO)NCCCNC(C)=N)cc4)c(=O)nc3[nH]2)c1 [Compound 158]	≤ 16	≤ 16
CC(=N)NCCCN[C@H](c1ccc(-n2cc3cc(-c4cc(CCC[C@H](C)N)cc(Cl)c4F)[nH]c3nc2=O)cc1)C(F)F [Compound 159]	≤ 16	≤ 16
COC[C@H](N)CCCc1cc(Cl)c(F)c(-c2cc3cn(-c4ccc([C@@H]5CCC[C@@H](CCNC(C)=N)N5)cc4)c(=O)nc3[nH]2)c1 [Compound 160]	≤ 16	≤ 16
C=C[C@H](NCCCNC(C)=N)c1ccc(-n2cc3cc(-c4cc(CCC[C@H](C)N)cc(Cl)c4F)[nH]c3nc2=O)cc1 [Compound 161]	≤ 16	≤ 16
CC(=N)NCC[C@H](CO)N[C@@H](C)c1ccc(-n2cc3cc(-c4cc(CCC[C@@H](N)CO)cc(Cl)c4F)[nH]c3nc2=O)cc1F [Compound 163]	≤ 16	≤ 16
C=C[C@@H](CCNC(C)=N)N[C@@H](C)c1ccc(-n2cc3cc(-c4cc(CCC[C@@H](N)C5CC5)cc(Cl)c4F)[nH]c3nc2=O)cc1 [Compound 164]	≤ 16	≤ 16
CC(=N)NCC[C@H](CNc1ncc[nH]1)N[C@@H](C)c1ccc(-n2cc3cc(-c4cc(CCC[C@H](C)N)cc(Cl)c4F)[nH]c3nc2=O)cc1 [Compound 165]	≤ 16	≤ 16
C=C[C@@H](N)CCCc1cc(Cl)c(F)c(-c2cc3cn(-c4ccc([C@@H]5CCC[C@@H](CCNC(C)=N)N5)c(F)c4)c(=O)nc3[nH]2)c1 [Compound 166]	≤ 16	≤ 16
CC(=N)NCC[C@@H]1CCC[C@@H](c2ccc(-n3cc4cc(-c5cc(CCC[C@@H](N)C6CC6)cc(Cl)c5F)[nH]c4nc3=O)cc2F)N1 [Compound 167]	≤ 16	≤ 16
C=C[C@@H](CCNC(C)=N)N[C@@H](C)c1ccc(-n2cc3cc(-c4cc(CCC[C@@H](N)CO)cc(Cl)c4F)[nH]c3nc2=O)cc1F [Compound 168]	≤ 16	≤ 16
CC(=N)NCC[C@@H]1CCC[C@@H](c2ccc(-n3cc4cc(-c5cc(CCCC6(N)CC6)cc(Cl)c5F)[nH]c4nc3=O)cc2F)N1 [Compound 169]	≤ 16	≤ 16
CC(=N)NCC[C@@H]1CCC[C@@H](c2ccc(-n3cc4cc(-c5cc(CCC[C@@H](N)CF)cc(Cl)c5F)[nH]c4nc3=O)cc2F)N1 [Compound 170]	≤ 16	≤ 16
COC[C@H](N)CCCc1cc(Cl)c(F)c(-c2cc3cn(-c4ccc([C@@H]5CCC[C@@H](CCNC(C)=N)N5)c(F)c4)c(=O)nc3[nH]2)c1 [Compound 171]	≤ 16	≤ 16
CC(=N)NCC[C@@H]1CCC[C@@H](c2ccc(-n3cc4cc(-c5cc(CCC[C@H](C)N)cc(C(F)(F)F)c5)[nH]c4nc3=O)cc2)N1 [Compound 172]	≤ 16	≤ 16
C=C[C@H](N)CCCc1cc(Cl)c(F)c(-c2cc3cn(-c4ccc([C@@H]5CCC[C@@H](CCNC(C)=N)N5)c(F)c4)c(=O)nc3[nH]2)c1 [Compound 173]	≤ 16	≤ 16
C=C[C@H](N)CCCc1cc(Cl)c(F)c(-c2cc3cn(-c4ccc([C@H](C)N[C@@H](CO)CCNC(C)=N)c(F)c4)c(=O)nc3[nH]2)c1 [Compound 174]	≤ 16	≤ 16

SMILES	MIC [1] [µg/mL]	MIC [2] [µg/mL]
CC(=N)NCC[C@@H]1CCC[C@@H](c2ccc(-n3cc4cc(-c5cc(CCC[C@H](C)N)cc(Cl)c5F)[nH]c4nc3=O)cc2Cl)N1 [Compound 175]	≤ 16	≤ 16
CC(=N)NCC[C@@H]1CCC[C@@H](c2ccc(-n3cc4cc(-c5cc(CCC[C@@H](N)CF)cc(Cl)c5F)[nH]c4nc3=O)cc2Cl)N1 [Compound 176]	≤ 16	≤ 16
CC(=N)NCC[C@H](CO)N[C@@H](C)c1ccc(-n2cc3cc(-c4cc(CCC[C@H](C)N)cc(Cl)c4F)[nH]c3nc2=O)cc1F [Compound 177]	≤ 16	≤ 16
CC(=N)NCC[C@H](CO)N[C@@H](C)c1ccc(-n2cc3cc(-c4cc(CCC[C@@H](N)CF)cc(Cl)c4F)[nH]c3nc2=O)cc1F [Compound 178]	≤ 16	≤ 16
C=C[C@H](NCCCNC(C)=N)c1ccc(-n2cc3cc(-c4cc(CCC[C@@H](N)CF)cc(Cl)c4F)[nH]c3nc2=O)cc1 [Compound 179]	≤ 16	≤ 16
C=CCN(CC[C@@H]1CCC[C@@H](c2ccc(-n3cc4cc(-c5cc(CCC[C@H](C)N)cc(Cl)c5F)[nH]c4nc3=O)cc2)N1C)C(C)=N [Compound 180]	≤ 16	≤ 16
C=CCN(CC[C@@H]1CCC[C@@H](c2ccc(-n3cc4cc(-c5cc(CCC[C@@H](N)CF)cc(Cl)c5F)[nH]c4nc3=O)cc2)N1C)C(C)=N [Compound 181]	≤ 16	≤ 16
C=C[C@@H](CCNC(C)=N)N[C@@H](C)c1ccc(-n2cc3cc(-c4cc(CCC[C@H](C)N)cc(Cl)c4F)[nH]c3nc2=O)cc1F [Compound 183]	≤ 16	≤ 16
C=C[C@H](N)CCCc1cc(Cl)c(F)c(-c2cc3cn(-c4ccc([C@H](C)N[C@@H](C=C)CCNC(C)=N)c(F)c4)c(=O)nc3[nH]2)c1 [Compound 184]	≤ 16	≤ 16
C=C[C@H](N)CCCc1cc(Cl)c(F)c(-c2cc3cn(-c4ccc([C@@H]5CCC[C@@H](CCNC(=N)C(Cl)(Cl)Cl)N5)c(F)c4)c(=O)nc3[nH]2)c1 [Compound 185]	≤ 16	≤ 16
C=C[C@@H](CCNC(C)=N)N[C@@H](C)c1ccc(-n2cc3cc(-c4cc(CCC[C@@H](N)CF)cc(Cl)c4F)[nH]c3nc2=O)cc1F [Compound 186]	≤ 16	≤ 16
C=C[C@@H](CCNC(C)=N)NCc1ccc(-n2cc3cc(-c4cc(CCC[C@@H](N)COC)cc(Cl)c4F)[nH]c3nc2=O)cc1 [Compound 187]	≤ 16	≤ 16
COC[C@@H](CCNC(C)=N)NCc1ccc(-n2cc3cc(-c4cc(CCC[C@@H](N)CF)cc(Cl)c4F)[nH]c3nc2=O)cc1 [Compound 188]	≤ 16	≤ 16
COC[C@@H](CCNC(C)=N)NCc1ccc(-n2cc3cc(-c4cc(CCC[C@H](C)N)cc(Cl)c4F)[nH]c3nc2=O)cc1 [Compound 189]	≤ 16	≤ 16
CC(=N)NCC[C@@H]1CCC[C@@H](c2ccc(-n3cc4cc(-c5cc(CCC[C@H](C)N)cc(Cl)c5F)[nH]c4nc3=O)cn2)N1 [Compound 192]	≤ 16	≤ 16
CC(=N)NCC[C@@H]1CCC[C@@H](c2ccc(-n3cc4cc(-c5cc(CCC[C@@H](N)CF)cc(C(F)(F)F)c5F)[nH]c4nc3=O)cc2)N1 [Compound 193]	≤ 16	≤ 16
COC[C@H](N)CCCc1cc(-c2cc3cn(-c4ccc([C@@H]5CCC[C@@H](CCNC(C)=N)N5)c(OC)c4)c(=O)nc3[nH]2)c(F)c(C(F)(F)F)c1 [Compound 194]	≤ 16	≤ 16
COC[C@H](N)CCCc1cc(OC(F)(F)F)c(F)c(-c2cc3cn(-c4ccc([C@@H]5CCC[C@@H](CCNC(C)=N)N5)cc4)c(=O)nc3[nH]2)c1 [Compound 195]	≤ 16	≤ 16
COC[C@H](N)CCCc1cc(OC(F)(F)F)c(F)c(-c2cc3cn(-c4ccc([C@@H]5CCC[C@@H](CCNC(C)=N)N5)c(OC)c4)c(=O)nc3[nH]2)c1 [Compound 197]	≤ 16	≤ 16
COC[C@H](N)CCCc1cc(OC(F)(F)F)c(F)c(-c2cc3cn(-c4ccc([C@@H]5CCC[C@@H](CCNC(C)=N)N5)c(SC)c4)c(=O)nc3[nH]2)c1 [Compound 198]	≤ 16	≤ 16
COC[C@H](N)CCCc1cc(-c2cc3cn(-c4ccc([C@@H]5CCC[C@@H](CCNC(C)=N)N5)c(F)c4)c(=O)nc3[nH]2)cc(C(F)(F)F)c1 [Compound 201]	≤ 16	≤ 16
COC[C@H](N)CCCc1cc(-c2cc3cn(-c4ccc([C@@H]5CCC[C@@H](CCNC(C)=N)N5)c(SC)c4)c(=O)nc3[nH]2)cc(C(F)(F)F)c1 [Compound 202]	≤ 16	≤ 16
CSc1cc(-n2cc3cc(-c4cc(CCC[C@@H](N)CF)cc(C(F)(F)F)c4)[nH]c3nc2=O)ccc1[C@@H]1CCC[C@@H](CCNC(C)=N)N1 [Compound 203]	≤ 16	≤ 16
CC(=N)NCC[C@@H]1CCC[C@@H](c2ccc(-n3cc4cc(-c5cc(CCC[C@@H](N)CF)cc(C(F)(F)F)c5)[nH]c4nc3=O)cc2)N1 [Compound 204]	≤ 16	≤ 16
